In patent US10954252B1, “Inhibitors of human immunodeficiency virus replication” (ViiV HEALTHCARE UK (NO.5) LIMITED, priority 2017, dated 2021):

Tests used:
[1] = tested on: recombinant NL4-3 virus (nef section replaced with Renilla luciferase gene) in MT-2 cells; test: HIV cell culture assay (antiviral activity, luciferase readout); assay type: cell-based; conditions: MT-2 cells infected for 4-5 days with recombinant NL4-3 luciferase virus
How it was run: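 Serially diluted compounds were present throughout a 4-5 day infection of MT-2 cells by recombinant NL4-3 whose nef region partly encodes Renilla luciferase. Antiviral activity was taken from live-cell luciferase signal, with the 50% effective concentration fitted by the exponential median effect equation.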

uninfected MT2 cells = test: Compound cytotoxicity, XTT-based colorimetric assay; assay type: cell-based
How it was run: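 XTT colorimetric read-out on day 4 gave CC50 values, using MT2 cells left uninfected but otherwise handled as in the antiviral assay.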

Row | SMILES | EC50 ([1]; Renilla, NL43, Table 1a) [nM] | CC50 (uninfected MT2 cells; Table 1a, day 4, XTT) [nM] | EC50 ([1]; Table 1) [nM] | CC50 (uninfected MT2 cells; Table 1, day 4, XTT) [nM] | EC50 ([1]; Table 1a) [nM]
1 | CC(C)c1ccc(-c2cc3[nH]ccc3nc2[C@H](Cc2cc(F)cc(F)c2)NC(=O)Cn2nc(C(F)F)c3c2C(F)(F)[C@@H]2C[C@H]32)cn1 [Example 82, 2-((3bS,4aR)-3-(difluoromethyl)-5,5-difluoro-3b,4,4a,5-tetrahydro-1H-cyclopropa[3,4]cyclopenta[1,2-c]pyrazol-1-yl)-N—((S)-2-(3,5-difluorophenyl)-1-(6-(6-isopropylpyridin-3-yl)-1H-pyrrolo[3,2-b]pyridin-5-yl)ethyl)acetamide] | 3.81 | 6310 |  |  | 
2 | Cn1nc(NS(C)(=O)=O)c2c(Cl)ccc(-c3cc4[nH]cnc4nc3C(Cc3cc(F)cc(F)c3)NC(=O)Cn3nc(C(F)F)c4c3C(F)(F)[C@@H]3C[C@H]43)c21 (single isomer, unassigned) [Example 4.2] |  |  | 1 | > 10000 | 
3 | Cn1nc(NS(C)(=O)=O)c2c(Cl)ccc(-n3c([C@H](Cc4cc(F)cc(F)c4)NC(=O)Cn4ccc(C5CC5)n4)nc4ccc(OC(F)(F)F)cc4c3=O)c21 (single isomer, unassigned) [Example 153] |  | > 1000 |  |  | 0.97
4 | Cn1ccc2nc([C@H](Cc3cc(F)cc(F)c3)NC(=O)Cn3nc(C(F)F)c4c3C(F)(F)[C@@H]3C[C@H]43)c(-c3ccc(Cl)c4c(NS(C)(=O)=O)nn(C)c34)cc21 (single isomer, unassigned) [Example 120] |  | > 10000 |  |  | 0.0753
5 | O=C(Cn1nc(C(F)F)c2c1C(F)(F)[C@@H]1C[C@H]21)N[C@H](Cc1cc(F)cc(F)c1)c1nc2cn[nH]c2cc1-c1ccc2scnc2c1 (single isomer, unassigned) [Example 3.2] |  |  | 960 | 12700 | 
6 | Cn1nc(NS(C)(=O)=O)c2c(Cl)ccc(-c3cc4cn[nH]c4nc3C(Cc3cc(F)cc(F)c3)NC(=O)Cn3nc(C(F)F)c4c3C(F)(F)[C@@H]3C[C@H]43)c21 (single isomer, unassigned) [Example 6.2] |  |  | 4.3 | > 10000 | 
7 | Cn1nc(NS(C)(=O)=O)c2c(Cl)ccc(-n3c([C@H](Cc4cc(F)cc(F)c4)NC(=O)Cn4nc(C(F)F)c5c4C(F)(F)[C@@H]4C[C@H]54)nc4cc(C(C)(C)S(C)(=O)=O)ccc4c3=O)c21 (mixture of isomers) [Example 208, N—((S)-1-(3-(4-chloro-1-methyl-3-(methylsulfonamido)-1H-indazol-7-yl)-7-(2-(methylsulfonyl)propan-2-yl)-4-oxo-3,4-dihydroquinazolin-2-yl)-2-(3,5-difluorophenyl)ethyl)-2-((3bS,4aR)-3-(difluoromethyl)-5,5-difluoro-3b,4,4a,5-tetrahydro-1H-cyclopropa[3,4]cyclopenta[1,2-c]pyrazol-1-yl)acetamide] |  | > 1000 |  |  | 0.083
8 | Cn1nc(NS(C)(=O)=O)c2c(Cl)ccc(-n3c([C@H](Cc4cc(F)cc(F)c4)NC(=O)Cn4nc(C(F)F)c5c4C(F)(F)[C@@H]4C[C@H]54)nc4cc(S(C)(=O)=O)ccc4c3=O)c21 (mixture of isomers) [Example 200, N—((S)-1-(3-(4-chloro-1-methyl-3-(methylsulfonamido)-1H-indazol-7-yl)-7-(methylsulfonyl)-4-oxo-3,4-dihydroquinazolin-2-yl)-2-(3,5-difluorophenyl)ethyl)-2-((3bS,4aR)-3-(difluoromethyl)-5,5-difluoro-3b,4,4a,5-tetrahydro-1H-cyclopropa[3,4]cyclopenta[1,2-c]pyrazol-1-yl)acetamide] |  | > 1000 |  |  | 0.2
9 | Cn1nc(NS(C)(=O)=O)c2c(Cl)ccc(-n3c([C@H](Cc4cc(F)cc(F)c4)NC(=O)Cn4ccc(C5CC5)n4)nc4cc(C(F)(F)F)ccc4c3=O)c21 (single isomer, unassigned) [Example 151] | 0.74 | > 1000 |  |  | 
10 | Cn1nc(NS(C)(=O)=O)c2c(Cl)ccc(-c3cc4scnc4nc3C(Cc3cc(F)cc(F)c3)NC(=O)Cn3nc(C(F)F)c4c3C(F)(F)[C@@H]3C[C@H]43)c21 (single isomer, unassigned) [Example 1.3] |  |  | 0.3 | > 10000 | 
11 | Cn1nc(NS(C)(=O)=O)c2c(Cl)ccc(-n3c([C@H](Cc4cc(F)cc(F)c4)NC(=O)Cn4nc(C(F)F)c5c4C(F)(F)[C@@H]4C[C@H]54)nc4cc(Cl)ccc4c3=O)c21 (mixture of isomers) [Example 168, N—((S)-1-(7-chloro-3-(4-chloro-1-methyl-3-(methylsulfonamido)-1H-indazol-7-yl)-4-oxo-3,4-dihydroquinazolin-2-yl)-2-(3,5-difluorophenyl)ethyl)-2-((3bS,4aR)-3-(difluoromethyl)-5,5-difluoro-3b,4,4a,5-tetrahydro-1H-cyclopropa[3,4]cyclopenta[1,2-c]pyrazol-1-yl)acetamide] |  | > 1000 |  |  | 0.058
12 | Cn1nc(NS(C)(=O)=O)c2c(Cl)ccc(-c3cc4scnc4nc3C(Cc3cc(F)cc(F)c3)NC(=O)Cn3nc(C(F)F)c4c3C(F)(F)[C@@H]3C[C@H]43)c21 (single isomer, unassigned) [Example 1.6] |  |  | 1780 | > 10000 | 
13 | COc1cc(F)c2c(=O)n(-c3ccc(Cl)c4c(NS(C)(=O)=O)nn(C)c34)c([C@H](Cc3cc(F)cc(F)c3)NC(=O)Cn3ccc(C4CC4)n3)nc2c1 (single isomer, unassigned) [Example 190] |  | > 1000 |  |  | 42.2
14 | COc1cccc2c(=O)n(-c3ccc(Cl)c4c(NS(C)(=O)=O)nn(C)c34)c([C@H](Cc3cc(F)cc(F)c3)NC(=O)Cn3nc(C(F)F)c4c3C(F)(F)[C@@H]3C[C@H]43)nc12 (single isomer, unassigned) [Example 104] | 0.064 | > 1000 |  |  | 
15 | Cn1nc(NS(C)(=O)=O)c2c(Cl)ccc(-n3c([C@H](Cc4cc(F)cc(F)c4)NC(=O)Cn4ccc(C5CC5)n4)nc4cc(CS(C)(=O)=O)ccc4c3=O)c21 (single isomer, unassigned) [Example 206] | 0.64 | > 1000 |  |  | 
16 | COc1ccc2c(=O)n(-c3ccc(Cl)c4c(NS(C)(=O)=O)nn(C)c34)c([C@H](Cc3cc(F)cc(F)c3)NC(=O)Cn3ccc(C4CC4)n3)nc2n1 (mixture of isomers) [Example 58.2, N-[(1S)-1-[3-(4-chloro-3-methanesulfonamido-1-methyl-1H-indazol-7-yl)-7-methoxy-4-oxo-3H,4H-pyrido[2,3-d]pyrimidin-2-yl]-2-(3,5-difluorophenyl)ethyl]-2-(3-cyclopropyl-1H-pyrazol-1-yl)acetamide] |  | > 1000 |  |  | 0.168
17 | Cn1nc(NS(C)(=O)=O)c2c(Cl)ccc(-n3c([C@H](Cc4cc(F)cc(F)c4)NC(=O)Cn4nc(C(F)F)c5c4C(F)(F)[C@@H]4C[C@H]54)nc4cc(C(C)(C)C)ccc4c3=O)c21 (mixture of isomers) [Example 216, N—((S)-1-(7-(tert-Butyl)-3-(4-chloro-1-methyl-3-(methylsulfonamido)-1H-indazol-7-yl)-4-oxo-3,4-dihydroquinazolin-2-yl)-2-(3,5-difluorophenyl)ethyl)-2-((3bS,4aR)-3-(difluoromethyl)-5,5-difluoro-3b,4,4a,5-tetrahydro-1H-cyclopropa[3,4]cyclopenta[1,2-c]pyrazol-1-yl)acetamide] |  | > 1000 |  |  | 0.059
18 | Cn1nc(NS(C)(=O)=O)c2c(Cl)ccc(-n3c([C@H](Cc4cc(F)cc(F)c4)NC(=O)Cn4ccc(C(F)(F)F)n4)nc4ccc(OC(F)(F)F)cc4c3=O)c21 (single isomer, unassigned) [Example 144] |  | > 1000 |  |  | 8.08
19 | Cn1nc(NS(C)(=O)=O)c2c(Cl)ccc(-n3c([C@H](Cc4cc(F)cc(F)c4)NC(=O)Cn4ccc(C(F)(F)F)n4)nc4cc(C(F)(F)F)ccc4c3=O)c21 (single isomer, unassigned) [Example 142] |  | > 1000 |  |  | 4.98
20 | Cc1cccc2nc([C@H](Cc3cc(F)cc(F)c3)NC(=O)Cn3nc(C(F)F)c4c3C(F)(F)[C@@H]3C[C@H]43)n(-c3ccc(Cl)c4c(NS(C)(=O)=O)nn(C)c34)c(=O)c12 (single isomer, unassigned) [Example 126] |  | > 1000 |  |  | 0.054
21 | Cn1nc(NS(C)(=O)=O)c2c(Cl)ccc(-c3cc4cc[nH]c4nc3C(Cc3cc(F)cc(F)c3)NC(=O)Cn3nc(C(F)F)c4c3C(F)(F)[C@@H]3C[C@H]43)c21 (single isomer, unassigned) [Example 86] |  | > 10000 |  |  | 1100
22 | O=C(Cn1nc(C(F)F)c2c1C(F)(F)[C@@H]1C[C@H]21)NC(Cc1cc(F)cc(F)c1)c1nc2ncsc2cc1-c1ccc2scnc2c1 (single isomer, unassigned) [Example 1.2] |  |  | 2850 | > 33300 | 
23 | O=C(Cn1nc(C(F)F)c2c1C(F)(F)[C@@H]1C[C@H]21)N[C@H](Cc1cc(F)cc(F)c1)c1nc2cn[nH]c2cc1-c1ccc2scnc2c1 (single isomer, unassigned) [Example 3.1] |  |  | 22 | 42100 | 
24 | Cc1cccc2nc([C@H](Cc3cc(F)cc(F)c3)NC(=O)Cn3ccc(C4CC4)n3)n(-c3ccc(Cl)c4c(NS(C)(=O)=O)nn(C)c34)c(=O)c12 (single isomer, unassigned) [Example 134] |  | > 1000 |  |  | 2.21
25 | Cc1cccc2c(=O)n(-c3ccc(Cl)c4c(NS(C)(=O)=O)nn(C)c34)c([C@H](Cc3cc(F)cc(F)c3)NC(=O)Cn3nc(C(F)F)c4c3C(F)(F)[C@@H]3C[C@H]43)nc12 (single isomer, unassigned) [Example 98] |  | > 1000 |  |  | 0.747
26 | Cn1nc(NS(C)(=O)=O)c2c(Cl)ccc(-n3c([C@H](Cc4cc(F)cc(F)c4)NC(=O)Cn4nc(C(F)F)c5c4C(F)(F)[C@@H]4C[C@H]54)nc4c(Cl)cccc4c3=O)c21 (single isomer, unassigned) [Example 102] |  | > 1000 |  |  | 1.04
